Test results: ChEMBL document CHEMBL3232855, “The discovery of N-((2H-tetrazol-5-yl)methyl)-4-((R)-1-((5r,8R)-8-(tert-butyl)-3-(3,5-dichlorophenyl)-2-oxo-1,4-diazaspiro[4.5]dec-3-en-1-yl)-4,4-dimethylpentyl)benzamide (SCH 900822): a potent and selective glucagon receptor antagonist” (J Med Chem, 2014)

Legend:
[1] = target: T1, Glucagon receptor (Homo sapiens, UniProt P47871); assay: biochemical; format: cell-based, CHO
Description: Displacement of [125I]-glucagon from recombinant human GCGR expressed in CHO cells after 60 mins by scintillation counting analysis

[2] = target: T1, Glucagon receptor; assay: Antagonist activity at human GCGR expressed in CHO cells assessed as inhibition of glucagon-stimulated cAMP production preincubated for 30 mins followed by glucagon induction measured after 45 mins by LANCE assay; format: functional, cell-based
[3] = target: Glucagon receptor (Mus musculus, UniProt Q61606); format: cell membranes, Liver, Membrane
Description: Displacement of [125I]-glucagon from GCGR in mouse liver membranes after 60 mins by scintillation counting analysis

[4] = target: Glucagon-like peptide 1 receptor (Homo sapiens, UniProt P43220); assay: Antagonist activity at human GLP-1R expressed in CHO cells assessed as inhibition of GLP-1-stimulated cAMP production preincubated for 30 mins followed by GLP-1 induction measured after 45 mins by LANCE assay; format: functional, cell-based
Sequence of Glucagon-like peptide 1 receptor (P43220 whole entry): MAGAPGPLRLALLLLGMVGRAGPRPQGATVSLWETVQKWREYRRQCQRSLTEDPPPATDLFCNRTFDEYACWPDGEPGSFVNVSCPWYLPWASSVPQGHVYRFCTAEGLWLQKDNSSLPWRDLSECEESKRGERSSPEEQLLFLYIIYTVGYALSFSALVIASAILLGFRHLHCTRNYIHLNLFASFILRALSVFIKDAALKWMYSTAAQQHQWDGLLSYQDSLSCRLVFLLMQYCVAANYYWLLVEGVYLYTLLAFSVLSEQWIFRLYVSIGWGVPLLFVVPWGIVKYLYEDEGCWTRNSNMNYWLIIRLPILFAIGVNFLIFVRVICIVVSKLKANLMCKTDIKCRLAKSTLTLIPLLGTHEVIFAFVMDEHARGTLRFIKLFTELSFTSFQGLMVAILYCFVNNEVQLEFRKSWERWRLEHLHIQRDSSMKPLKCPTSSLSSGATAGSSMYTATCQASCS

Sequence of Glucagon receptor (Mus musculus, UniProt Q61606) (Q61606 whole entry): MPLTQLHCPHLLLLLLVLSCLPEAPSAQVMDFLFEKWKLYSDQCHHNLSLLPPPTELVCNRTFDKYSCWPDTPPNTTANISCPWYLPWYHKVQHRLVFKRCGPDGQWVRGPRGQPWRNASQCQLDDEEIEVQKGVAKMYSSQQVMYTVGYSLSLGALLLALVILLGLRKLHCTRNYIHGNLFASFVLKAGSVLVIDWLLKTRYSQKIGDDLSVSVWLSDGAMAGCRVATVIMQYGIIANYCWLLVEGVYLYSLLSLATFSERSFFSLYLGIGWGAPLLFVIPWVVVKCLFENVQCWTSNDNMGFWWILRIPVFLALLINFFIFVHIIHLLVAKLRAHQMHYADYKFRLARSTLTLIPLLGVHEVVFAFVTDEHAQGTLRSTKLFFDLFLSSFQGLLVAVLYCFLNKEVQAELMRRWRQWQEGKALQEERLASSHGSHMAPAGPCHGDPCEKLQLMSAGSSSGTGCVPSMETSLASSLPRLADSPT
T1 sequence (P47871 whole entry): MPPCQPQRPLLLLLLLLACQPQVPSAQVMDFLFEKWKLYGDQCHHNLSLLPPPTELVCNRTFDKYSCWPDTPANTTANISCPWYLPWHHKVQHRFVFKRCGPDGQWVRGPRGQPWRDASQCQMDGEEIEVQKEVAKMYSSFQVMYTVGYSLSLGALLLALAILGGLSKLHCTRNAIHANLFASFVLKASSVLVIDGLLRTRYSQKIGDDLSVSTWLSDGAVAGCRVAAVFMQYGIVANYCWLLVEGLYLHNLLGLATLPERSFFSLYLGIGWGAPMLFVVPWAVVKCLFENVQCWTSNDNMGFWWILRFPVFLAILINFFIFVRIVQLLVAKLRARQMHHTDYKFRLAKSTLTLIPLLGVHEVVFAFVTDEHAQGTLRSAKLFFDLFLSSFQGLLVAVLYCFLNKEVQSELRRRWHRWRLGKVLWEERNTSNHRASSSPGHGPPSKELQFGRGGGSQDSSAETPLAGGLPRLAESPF

IC50 [1] [nM] | IC50 [2] [nM] | IC50 [3] [nM] | IC50 [4] [nM] | Structure (SMILES)
96 | 140 | 1200 | 6400 | C[C@H](c1ccc(C(=O)NCCC(=O)O)cc1)N1C(=O)C(c2cc(Cl)cc(Cl)c2)=N[C@]12CC[C@@H](C(C)(C)C)CC2
67 | 1100 | 8000 | > 10000 | C[C@H](c1ccc(C(=O)NCCC(=O)O)cc1)N1C(=O)C(c2ccc(OC(F)(F)F)cc2)=N[C@]12CC[C@@H](C(C)(C)C)CC2
360 | 630 | 5300 | > 10000 | C[C@H](c1ccc(C(=O)NCCC(=O)O)cc1)N1C(=O)C(c2ccccc2)=N[C@]12CC[C@@H](C(C)(C)C)CC2
150 | 490 | 1700 | > 10000 | Cc1cccc(C2=N[C@]3(CC[C@@H](C(C)(C)C)CC3)N([C@H](C)c3ccc(C(=O)NCCC(=O)O)cc3)C2=O)c1
95 | 550 | 3200 | 4400 | C[C@H](c1ccc(C(=O)NCCC(=O)O)cc1)N1C(=O)C(c2ccc(Cl)c(Cl)c2)=N[C@]12CC[C@@H](C(C)(C)C)CC2
14 | 130 | 130 | > 10000 | CC(C)(C)CC[C@H](c1ccc(C(=O)NCc2nn[nH]n2)cc1)N1C(=O)C(c2cccc(Cl)c2)=N[C@]12CC[C@@H](C(C)(C)C)CC2
44 | 440 | 2300 | 4300 | C[C@H](c1ccc(C(=O)NCCC(=O)O)cc1)N1C(=O)C(c2ccc(F)c(Cl)c2)=N[C@]12CC[C@@H](C(C)(C)C)CC2
– | 5100 | – | > 10000 | C[C@@H](c1ccc(C(=O)NCCC(=O)O)cc1)N1C(=O)C(c2cc(Cl)cc(Cl)c2)=N[C@]12CC[C@@H](C(C)(C)C)CC2
86 | 370 | – | > 10000 | CC(C)(C)CC[C@H](c1ccc(C(=O)NC[C@H](O)C(=O)O)cc1)N1C(=O)C(c2cc(Cl)cc(Cl)c2)=N[C@]12CC[C@@H](C(C)(C)C)CC2
170 | 910 | 2800 | > 10000 | C[C@H](c1ccc(C(=O)NCCC(=O)O)cc1)N1C(=O)C(c2ccc(C(F)(F)F)cc2)=N[C@]12CC[C@@H](C(C)(C)C)CC2
15 | 230 | – | > 10000 | COc1cccc(C2=N[C@]3(CC[C@@H](C(C)(C)C)CC3)N([C@H](CCC(C)(C)C)c3ccc(C(=O)NCc4nn[nH]n4)cc3)C2=O)c1
190 | 140 | 1300 | 3100 | CC(Cc1ccc(C(=O)NCCC(=O)O)cc1)N1C(=O)C(c2cc(Cl)cc(Cl)c2)=N[C@]12CC[C@@H](C(C)(C)C)CC2 (stereo partly specified)
340 | 750 | 4600 | > 10000 | C[C@H](c1ccc(C(=O)NCCC(=O)O)cc1)N1C(=O)C(c2cc(Cl)ccc2F)=N[C@]12CC[C@@H](C(C)(C)C)CC2
21 | 140 | 100 | > 10000 | CC(C)(C)CC[C@H](c1ccc(C(=O)NCc2nn[nH]n2)cc1)N1C(=O)C(c2cccc(F)c2)=N[C@]12CC[C@@H](C(C)(C)C)CC2
890 | 260 | 3300 | 7300 | CC(CN1C(=O)C(c2cc(Cl)cc(Cl)c2)=N[C@]12CC[C@@H](C(C)(C)C)CC2)c1ccc(C(=O)NCCC(=O)O)cc1 (stereo partly specified)
330 | 840 | 1500 | 2200 | C[C@H](c1ccc(C(=O)NCCC(=O)O)cc1)N1C(=O)C(c2cccc(OC(F)(F)F)c2)=N[C@]12CC[C@@H](C(C)(C)C)CC2
170 | 170 | 1500 | > 10000 | CC(C)(C)[C@H]1CC[C@]2(CC1)N=C(c1cc(Cl)cc(Cl)c1)C(=O)N2CCc1ccc(C(=O)NCCC(=O)O)cc1
– | 2700 | – | > 10000 | CC(C)(C)CC[C@H](c1ccc(C(=O)NCC(=O)O)cc1)N1C(=O)C(c2cc(Cl)cc(Cl)c2)=N[C@]12CC[C@@H](C(C)(C)C)CC2
– | > 10000 | – | > 10000 | C[C@@H](CC(=O)O)NC(=O)c1ccc([C@@H](CCC(C)(C)C)N2C(=O)C(c3cc(Cl)cc(Cl)c3)=N[C@]23CC[C@@H](C(C)(C)C)CC3)cc1
149 | 400 | – | > 10000 | CC(C)(C)CC[C@H](c1ccc(C(=O)NC[C@@H](O)C(=O)O)cc1)N1C(=O)C(c2cc(Cl)cc(Cl)c2)=N[C@]12CC[C@@H](C(C)(C)C)CC2 (mixture of isomers)
270 | 350 | – | > 10000 | CC(C)(C)CC[C@H](c1ccc(C(=O)NCCCC(=O)O)cc1)N1C(=O)C(c2cc(Cl)cc(Cl)c2)=N[C@]12CC[C@@H](C(C)(C)C)CC2

Continued, molecule first:

Structure (SMILES) | IC50 [1] [nM] | IC50 [2] [nM] | IC50 [3] [nM] | IC50 [4] [nM]
CC(C)CC[C@H](c1ccc(C(=O)NCc2nn[nH]n2)cc1)N1C(=O)C(c2cc(Cl)cc(Cl)c2)=N[C@]12CC[C@@H](C(C)(C)C)CC2 | 22 | 150 | 280 | > 10000
C[C@H](CC(=O)O)NC(=O)c1ccc([C@@H](CCC(C)(C)C)N2C(=O)C(c3cc(Cl)cc(Cl)c3)=N[C@]23CC[C@@H](C(C)(C)C)CC3)cc1 | 120 | 530 | 6100 | > 10000
CC(C)[C@H]1CC[C@]2(CC1)N=C(c1cc(Cl)cc(Cl)c1)C(=O)N2[C@H](CCC(C)(C)C)c1ccc(C(=O)NCc2nn[nH]n2)cc1 | 31 | 52 | 200 | > 10000
CCC[C@H](c1ccc(C(=O)NCc2nn[nH]n2)cc1)N1C(=O)C(c2cc(Cl)cc(Cl)c2)=N[C@]12CC[C@@H](C(C)(C)C)CC2 | 55 | 220 | 500 | > 10000
CC1(CC[C@H](c2ccc(C(=O)NCc3nn[nH]n3)cc2)N2C(=O)C(c3cc(Cl)cc(Cl)c3)=N[C@]23CC[C@@H](C(C)(C)C)CC3)CC1 | 17 | 100 | 110 | > 10000
CC(C)(C)CC[C@H](c1ccc(C(=O)NCc2nn[nH]n2)cc1)N1C(=O)C(c2cc(Cl)cc(Cl)c2)=NC12CCCCC2 | 195 | 510 | – | > 10000
CC(C)(C)CC[C@H](c1ccc(C(=O)NCCS(=O)(=O)O)cc1)N1C(=O)C(c2cc(Cl)cc(Cl)c2)=N[C@]12CC[C@@H](C(C)(C)C)CC2 | – | 8500 | – | > 10000
CC(C)[C@H](c1ccc(C(=O)NCc2nn[nH]n2)cc1)N1C(=O)C(c2cc(Cl)cc(Cl)c2)=N[C@]12CC[C@@H](C(C)(C)C)CC2 | – | 2200 | – | –
CC(C)(C)[C@H]1CC[C@]2(CC1)N=C(c1cc(Cl)cc(Cl)c1)C(=O)N2[C@H](CCC(F)(F)F)c1ccc(C(=O)NCc2nn[nH]n2)cc1 | 4 | 370 | 110 | > 10000
CC(C)(C)CC[C@H](c1ccc(C(=O)NCc2nn[nH]n2)cc1)N1C(=O)C(c2cncc(Cl)c2)=N[C@]12CC[C@@H](C(C)(C)C)CC2 | 38 | 480 | 84 | > 10000
CC(C)(C)CC[C@H](c1ccc(C(=O)NCc2nn[nH]n2)cc1)N1C(=O)C(c2cc(Cl)cc(Cl)c2)=N[C@]12CC[C@@H](C)CC2 | 36 | 260 | – | > 10000
C[C@H](c1ccc(C(=O)Nc2nnn[nH]2)cc1)N1C(=O)C(c2cc(Cl)cc(Cl)c2)=N[C@]12CC[C@@H](C(C)(C)C)CC2 | 470 | 750 | > 10000 | 800
CC(C)(C)CC[C@H](c1ccc(C(=O)NCc2nn[nH]n2)cc1)N1C(=O)C(c2ccc(F)c(F)c2)=N[C@]12CC[C@@H](C(C)(C)C)CC2 | 13 | 180 | 170 | > 10000
CC[C@H]1CC[C@]2(CC1)N=C(c1cc(Cl)cc(Cl)c1)C(=O)N2[C@H](CCC(C)(C)C)c1ccc(C(=O)NCc2nn[nH]n2)cc1 | 44 | 66 | – | > 10000
CCCC[C@H](c1ccc(C(=O)NCc2nn[nH]n2)cc1)N1C(=O)C(c2cc(Cl)cc(Cl)c2)=N[C@]12CC[C@@H](C(C)(C)C)CC2 | 23 | 380 | 420 | > 10000
CC(C)(C)CC[C@H](c1ccc(C(=O)NCc2nn[nH]n2)cc1)N1C(=O)C(c2ccc(F)cc2)=N[C@]12CC[C@@H](C(C)(C)C)CC2 | 13 | 240 | 90 | > 10000
CC(C)(C)CC[C@H](c1ccc(C(=O)NCc2nn[nH]n2)cc1)N1C(=O)C(c2ncccc2C(F)(F)F)=N[C@]12CC[C@@H](C(C)(C)C)CC2 | – | 1600 | – | > 10000
C[C@H](NC(=O)c1ccc([C@@H](CCC(C)(C)C)N2C(=O)C(c3cc(Cl)cc(Cl)c3)=N[C@]23CC[C@@H](C(C)(C)C)CC3)cc1)c1nnn[nH]1 | – | > 10000 | – | > 10000
CC(C)(C)CC[C@H](c1ccc(C(=O)NCc2nn[nH]n2)cc1)N1C(=O)C(c2cc(Cl)cc(Cl)c2)=NC1(C)C | – | – | – | > 10000
COc1ccc(C2=N[C@]3(CC[C@@H](C(C)(C)C)CC3)N([C@H](CCC(C)(C)C)c3ccc(C(=O)NCc4nn[nH]n4)cc3)C2=O)cc1 | 26 | 360 | – | > 10000
CC(C)(C)CC[C@H](c1ccc(C(=O)NCCC2=NNNN2)cc1)N1C(=O)C(c2cc(Cl)cc(Cl)c2)=N[C@]12CC[C@@H](C(C)(C)C)CC2 | 65 | 890 | – | > 10000
C[C@@H](NC(=O)c1ccc([C@@H](CCC(C)(C)C)N2C(=O)C(c3cc(Cl)cc(Cl)c3)=N[C@]23CC[C@@H](C(C)(C)C)CC3)cc1)c1nnn[nH]1 | – | 4500 | – | > 10000
CC(C)(C)CC[C@H](c1ccc(C(=O)Nc2nnn[nH]2)cc1)N1C(=O)C(c2cc(Cl)cc(Cl)c2)=N[C@]12CC[C@@H](C(C)(C)C)CC2 | 600 | 850 | – | 140
